Results as given in PMC10653547, “Synergistic effect of two antimicrobial peptides, BP203 and MAP-0403 J-2 with conventional antibiotics against colistin-resistant Escherichia coli and Klebsiella pneumoniae clinical isolates” (PLOS ONE, 2023).
Positions of bridges follow the written chain, without caps; N, C: chain ends. Non-standard residues stand in square brackets, D forms with d. Residues, ends and D or L forms follow the SMILES beside them. *: point of attachment. X1 = CC[C@H](C)CCCCC(=O)*; Dab = NCC[C@H](N)C(=O)O

Tests used:
[1] = test system: colistin-resistant E. coli clinical isolates; test: Checkerboard assay for synergy testing; type: cell-based, Escherichia coli
Method: (§1) The synergistic activities of various two-antimicrobial combinations against colistin-resistant E. coli and K. pneumoniae isolates were evaluated using the checkerboard assay, which was performed in 96-well plates. […] Two-fold serial dilutions of peptides and antibiotics were independently prepared in CAMHB. Afterward, a mixture of different concentrations of the antibiotics and peptides was added to the wells of the microplates. Antibiotics and peptides were also dispended alone in the first row and the first column, respectively. Bacterial inoculum was added to the 96-well plate to achieve a final concentration of 5 × 10^5 CFU/mL. Then, plates were incubated at 37 °C for 20–24 h. MICs were recorded as the minimum concentration of antimicrobial agents without bacterial growth. The interaction between the antimicrobials was determined by calculating the fractional inhibitory concentration index (FICI) according to the formula: FICI = FIC(drug A) + FIC(drug B), where FIC = the MIC of the drug when in the combination/MIC of drug tested individually.

[2] = test system: colistin-resistant K. pneumoniae clinical isolates; test: Checkerboard assay for synergy testing; type: cell-based, Klebsiella pneumoniae
Method: as §1

[3] = test system: colistin-resistant E. coli clinical isolates; test: Colistin susceptibility by broth microdilution (CLSI); type: cell-based, Escherichia coli; settings: for COL MIC: broth microdilution
Method: (§2) Ten non-duplicate clinical isolates of colistin-resistant E. coli (EC) and ten non-duplicate clinical isolates of colistin-resistant K. pneumoniae (KP) were obtained from the bacterial repository of the Division of Infectious Diseases and Tropical Medicine, Department of Medicine, Faculty of Medicine Siriraj Hospital, Mahidol University. The species identification was conducted through standard biochemical tests. Antimicrobial susceptibility testing was carried out using the disk diffusion method following CLSI guidelines. Additionally, the assessment of colistin resistance in all isolates was performed by broth microdilution following CLSI recommendations. […] The amino acid sequences of BP203 and MAP-0403 J-2 were retrieved from previous studies. These peptides are BP100 and MAP-0403 analogs, respectively. […] Antibiotic disks and defibrinated sheep blood were obtained from Oxoid (Basingstoke, UK). All culture media were purchased from Becton Dickinson (Frankin Lakes, NJ, USA). All chemicals were obtained from Sigma-Aldrich (St. Louis, MO, USA).

[4] = test system: colistin-resistant K. pneumoniae clinical isolates; test: as above; type: cell-based, Klebsiella pneumoniae; settings: for COL MIC: broth microdilution
Method: as §2

[5] = test system: MRC-5 (CCL-171) normal lung fibroblast cells; test: Cytotoxicity assay using MTT; type: cell-based, human; settings: 24 h exposure
Method: MRC-5 (CCL-171) cell line, a representative of normal lung fibroblast cells, was used to investigate the cytotoxic effects of two AMPs, BP203 and MAP-0403 J-2. The cells were grown in Dulbecco’s Modified Eagle Medium (DMEM, Cytiva Life Sciences, Marlborough, MA, USA), supplemented with 10% fetal bovine serum (FBS), 1% penicillin (10,000 U/mL) and streptomycin (10,000 μg/mL) (Gibco, Waltham, MA, USA). 2×10^4 cells were seeded into each well of a 96-well plate and allowed to adhere for 24 h. Then, these cells were subjected to exposure to a medium containing a prepared two-fold serial dilution of BP203 or MAP-0403 J-2. […] 3-(4,5-Dimethylthiazol-2-yl)-2,5-Diphenyltetrazolium Bromide (MTT) was introduced into each well to achieve a concentration of 0.5 mg/mL followed by 4 h. incubation. Subsequently, formazan crystals were dissolved through the addition of 100 μL of a solubilizing solution composed of 10% SDS in 0.1 N HCl and the developed color was measured using a microtiter plate reader at an optical density (OD) of 570 nm. Cell viability was calculated as follows: (ODsample/ODcontrol) × 100.

[6] = checkerboard BP203 x colistin, EC-01
[7] = checkerboard BP203 x colistin, EC-02
[8] = checkerboard BP203 x colistin, EC-03
[9] = checkerboard BP203 x colistin, EC-04
[10] = checkerboard BP203 x colistin, EC-05
[11] = checkerboard BP203 x colistin, EC-06
[12] = checkerboard BP203 x colistin, EC-07
[13] = checkerboard BP203 x colistin, EC-08
[14] = checkerboard BP203 x colistin, EC-09
[15] = checkerboard BP203 x colistin, EC-10
[16] = checkerboard MAP-0403 J-2 x colistin, EC-01
[17] = checkerboard MAP-0403 J-2 x colistin, EC-02
[18] = checkerboard MAP-0403 J-2 x colistin, EC-03
[19] = checkerboard MAP-0403 J-2 x colistin, EC-04
[20] = checkerboard MAP-0403 J-2 x colistin, EC-05
[21] = checkerboard MAP-0403 J-2 x colistin, EC-06
[22] = checkerboard MAP-0403 J-2 x colistin, EC-07
[23] = checkerboard MAP-0403 J-2 x colistin, EC-08
[24] = checkerboard MAP-0403 J-2 x colistin, EC-09
[25] = checkerboard MAP-0403 J-2 x colistin, EC-10
[26] = checkerboard BP203 x colistin, KP-01
[27] = checkerboard BP203 x colistin, KP-02
[28] = checkerboard BP203 x colistin, KP-03
[29] = checkerboard BP203 x colistin, KP-04
[30] = checkerboard BP203 x colistin, KP-05
[31] = checkerboard BP203 x colistin, KP-06
[32] = checkerboard BP203 x colistin, KP-07
[33] = checkerboard BP203 x colistin, KP-08
[34] = checkerboard BP203 x colistin, KP-09
[35] = checkerboard BP203 x colistin, KP-10
[36] = checkerboard MAP-0403 J-2 x colistin, KP-01
[37] = checkerboard MAP-0403 J-2 x colistin, KP-02
[38] = checkerboard MAP-0403 J-2 x colistin, KP-03
[39] = checkerboard MAP-0403 J-2 x colistin, KP-04
[40] = checkerboard MAP-0403 J-2 x colistin, KP-05
[41] = checkerboard MAP-0403 J-2 x colistin, KP-06
[42] = checkerboard MAP-0403 J-2 x colistin, KP-07
[43] = checkerboard MAP-0403 J-2 x colistin, KP-08
[44] = checkerboard MAP-0403 J-2 x colistin, KP-09
[45] = checkerboard MAP-0403 J-2 x colistin, KP-10

CC[C@H](C)CCCCC(=O)N[C@@H](CCN)C(=O)N[C@H](C(=O)N[C@@H](CCN)C(=O)N[C@H]1CCNC(=O)[C@H]([C@@H](C)O)NC(=O)[C@H](CCN)NC(=O)[C@H](CCN)NC(=O)[C@H](CC(C)C)NC(=O)[C@@H](CC(C)C)NC(=O)[C@H](CCN)NC1=O)[C@@H](C)O [COL, colistin] (X1-[Dab]T[Dab][Dab][Dab][dL]L[Dab][Dab]T; lactam 4-C)
128 µg/mL: MIC alone [2, 33] | MIC combination [2, 33] | MIC alone [2, 35] | MIC combination [2, 42] | MIC alone [2, 43] | MIC combination [2, 43] | MIC alone [2, 45] | COL MIC ([4]; KP-08) | COL MIC ([4]; KP-10)
64 µg/mL: MIC alone [2, 32] | MIC combination [2, 35] | MIC alone [2, 42] | MIC combination [2, 45] | COL MIC ([4]; KP-07)
100%: %Resistance [3] | %Resistance [4]
2 µg/mL: MIC combination [1, 6] | MIC combination [1, 7] | MIC combination [1, 9] | MIC combination [1, 10] | MIC combination [1, 15] | MIC combination [1, 19] | MIC combination [1, 21] | MIC combination [1, 22] | MIC combination [1, 23]
1 µg/mL: MIC combination [1, 8] | MIC combination [1, 17] | MIC combination [1, 20]
32 µg/mL: MIC alone [2, 28] | MIC combination [2, 28] | MIC alone [2, 34] | MIC alone [2, 38] | MIC combination [2, 38] | MIC alone [2, 44] | MIC combination [2, 44] | COL MIC ([4]; KP-03) | COL MIC ([4]; KP-09)
16 µg/mL: MIC alone [1, 14] | MIC alone [1, 15] | MIC alone [1, 24] | MIC alone [1, 25] | MIC alone [2, 29] | MIC combination [2, 29] | MIC alone [2, 30] | MIC combination [2, 30] | MIC alone [2, 31] | MIC combination [2, 31] | MIC combination [2, 34] | MIC alone [2, 39] | MIC combination [2, 39] | MIC alone [2, 40] | MIC combination [2, 40] | MIC alone [2, 41] | MIC combination [2, 41] | COL MIC ([3]; EC-09) | COL MIC ([3]; EC-10) | COL MIC ([4]; KP-04) | COL MIC ([4]; KP-05) | COL MIC ([4]; KP-06)
4 µg/mL: MIC alone [1, 6] | MIC alone [1, 7] | MIC alone [1, 8] | MIC alone [1, 9] | MIC alone [1, 10] | MIC alone [1, 11] | MIC combination [1, 11] | MIC combination [1, 12] | MIC alone [1, 16] | MIC alone [1, 17] | MIC alone [1, 18] | MIC alone [1, 19] | MIC alone [1, 20] | MIC alone [1, 21] | MIC combination [1, 24] | MIC combination [1, 25] | MIC alone [2, 26] | MIC combination [2, 26] | MIC alone [2, 36] | MIC combination [2, 36] | COL MIC ([3]; EC-01) | COL MIC ([3]; EC-02) | COL MIC ([3]; EC-03) | COL MIC ([3]; EC-04) | COL MIC ([3]; EC-05) | COL MIC ([3]; EC-06) | COL MIC ([4]; KP-01)
0.5 µg/mL: MIC combination [1, 16] | MIC combination [1, 18] | MIC combination [2, 32]
8 µg/mL: MIC alone [1, 12] | MIC alone [1, 13] | MIC combination [1, 13] | MIC combination [1, 14] | MIC alone [1, 22] | MIC alone [1, 23] | MIC alone [2, 27] | MIC combination [2, 27] | MIC alone [2, 37] | MIC combination [2, 37] | COL MIC ([3]; EC-07) | COL MIC ([3]; EC-08) | COL MIC ([4]; KP-02)
≥ 4 µg/mL: MICs, all isolates ([3]; all E. coli isolates) | MICs, all isolates ([4]; all K. pneumoniae isolates)

CC[C@H](C)[C@H](NC(=O)CN)C(=O)NCC(=O)N[C@@H](C)C(=O)N[C@H](C(=O)N[C@@H](CC(C)C)C(=O)N[C@@H](CCCCN)C(=O)N[C@H](C(=O)N[C@@H](CC(C)C)C(=O)N[C@H](C(=O)N[C@H](C(=O)NCC(=O)N[C@@H](CC(C)C)C(=O)N1CCC[C@H]1C(=O)N[C@@H](C)C(=O)N[C@@H](CC(C)C)C(=O)N[C@H](C(=O)N[C@@H](CO)C(=O)N[C@@H](Cc1c[nH]c2ccccc12)C(=O)N[C@H](C(=O)N[C@@H](CCCCN)C(=O)N[C@@H](CCCNC(=N)N)C(=O)N[C@@H](CCCCN)C(=O)N[C@@H](CCCNC(=N)N)C(=O)N[C@@H](CCC(N)=O)C(=O)N[C@@H](CCC(N)=O)C(N)=O)[C@@H](C)CC)[C@@H](C)CC)[C@@H](C)O)[C@@H](C)O)C(C)C)C(C)C [melittin]
16.13 µg/mL: IC50 [5]
